Patent publication US4122184A, “Benzimidazole insecticides” (priority 1977, dated 1978)
“And” between values parts separate entries of the source, which are not always exact repeats. Equal values may be shown once.

Experiments:
[1] = tested on: Picnic Beetle; assay: Field trial (first summer), topical; format: in vivo; details: .078125 μg/μl
In short: (§1)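 Field trial from the first summer in which 1 µl of test solution holding a set number of micrograms of benzimidazole was applied topically to larvae or adult insects. Mortality at a given route and concentration was scored on a 0–9 scale.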

[2] = tested on: House Fly; assay: Housefly (Contact) Test; format: in vivo, Musca domestica (Diptera); details: 24 h
Description: Rearing cages containing four-day old adult house flies are chilled at 35°-40° F. for about 1 hour. One hundred flies are transferred from the rearing cage to each test cage using a small scoop. The caged flies are kept for 1-2 hours at 70°-80° F. The cages are sprayed in the same manner as described for the milkweed bug with 5 ml. of the test formulation. Two unsprayed cages are held as controls and two cages are sprayed with a 50 ppm DDT formulation as a reference standard. Mortality counts are made 24 hours after spraying. […] The same rating scale is employed as heretofore.

[3] = tested on: Elm Leaf Beetle; assay: Field trial, stomach poison test; format: in vivo
In short: (§2)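 Spray (10 psi) or dip leaves from infested plants in test solution; air-dry; put in Petri dish; add 5 or 10 insects; score mortality 0–9 at 24/48/72 h. 1–2 reps, usually 2–3 rates.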

[4] = tested on: Walnut Caterpillar; assay: Field trial, stomach poison test; format: in vivo
In short: as §2

[5] = tested on: Red-Legged Grasshopper Adults; assay: Field trial, stomach poison test; format: in vivo
In short: as §2

[6] = tested on: Armyworm, P. Unipuncta; assay: Field trial, stomach poison test; format: in vivo
In short: as §2

[7] = tested on: Eastern Tent Caterpillar; assay: Field trial, stomach poison test; format: in vivo
In short: as §2

[8] = tested on: Bagworms; assay: Field trial, stomach poison test; format: in vivo
In short: as §2

[9] = tested on: Eastern Tent Caterpillar; assay: Field trial, topical application; format: in vivo
In short: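 1 μL benzimidazole solution of set microgram content applied topically to larvae or adults. Mortality read at 24, 48 and 72 h where applicable, rated 0-9 (0 = 0-10%, 9 = 91-100%); values are average mortality per concentration.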

[10] = tested on: Potato Flea Beetle Adults; assay: Field trial, contact poison test; format: in vivo
In short: (§3)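 Infested plants in water-filled bottles sprayed by atomizer at 10 psi with compound at several concentrations. Mortality read at 24, 48 and 72 hours on a 0–9 scale (0 = 0-10%, 9 = 91-100%), averaged per concentration.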

[11] = tested on: Alfalfa Weevil Larvae; assay: Field trial, contact poison test; format: in vivo
In short: as §3

[12] = tested on: Tarnished Plant Bug Adults; assay: Field trial, stomach poison test; format: in vivo; parameters: key: mortality rating on a 0 to 9 scale
In short: as §2

[13] = tested on: Unidentified Green Leafhopper; assay: Field trial, stomach poison test; format: in vivo; parameters: key: mortality rating on a 0 to 9 scale
In short: as §2

[14] = tested on: Confused Flour Beetle; assay: Field trial (first summer), topical; format: in vivo
In short: as §1

[15] = tested on: Mosquito Larvae; assay: Mosquito larvae test (dip test); format: in vivo, Aedes aegypti; details: 48 h
Description: Aedes aegypti larvae 5 days old are allowed to feed on fresh food for at least 3 hours previous to being placed on test. Larvae are then removed from the rearing pans by pouring on a 20 mesh screen, washing with deionized water, and pooling in a 6-inch white enameled sauce pan.
Twenty larvae are placed in a 1 oz. paper cup containing 25 ml. of deionized water.
Test chemicals are dissolved in a suitable solvent and pipetted under the surface of 225 ml. of deionized water in one pint wide-mouthed Mason jar test containers and stirred. A cup containing 20 larvae in 25 ml. of water is then added. […]
Results are determined 48 hours later by counting the dead and moribund larvae. […] Moribund larvae are those that are capable of limited, or poorly coordinated, locomotion in a sluggish manner.
Live larvae respond normally and actively.

[16] = tested on: Tussock Moth; assay: Field trial (first summer), stomach; format: in vivo; details: 750 ppm
Description: (§4) Leaves from the infested plant are treated with different concentrations of the test compounds, either by spraying with a DeVilbiss Special Atomizer (5004) at 10 psi or by dipping the leaves in solutions containing the compound. The leaves are then allowed to air dry.
(§5) After the leaves have dryed, they are placed in plastic petri dishes (100 × 25 mm), then the insects are counted out into each dish, five or ten insects per dish depending on the number of insects available. There are one or two replicates and usually two or three rates with each compound. Mortality results are taken at 24, 48 and 72 hours. The rating scale is 0 to 9.
(§6) During the previous summer similar field trials were conducted employing the same tests as heretofore but with some additional species of insects not included in the later tests. The results listed below are for tests in which an insect mortality was established by a given application route and at a given concentration in a particular test. The same 0 - 9 scoring system is used as is the designation of compounds by alphabetical symbols.

[17] = tested on: Zebra Caterpillar; assay: Field trial (first summer), stomach; format: in vivo; details: 500 ppm
Description: as §4, §5, §6

[18] = tested on: Meadow Grasshopper; assay: Field trial (first summer), contact; format: in vivo; details: 125 ppm
[19] = tested on: Differential Grasshopper; assay: Field trial (first summer), contact; format: in vivo; details: 250 ppm
[20] = tested on: Mexican Bean Beetle; assay: Field trial (first summer), topical; format: in vivo, Epilachna varivestis; details: .0625 μg/μl
Description: In a variation of the above test, 1 microliter of a test solution containing a predetermined number of micrograms of benzimidazole was applied directly to larvae or adult insects.
as §6

For “mixture of N,N-dimethyl-4-nitro-2,6-bis(trifluoromethyl)thio-1-benzimidazolecarboxamide and N,N-dimethyl-7-nitro-2,5-bis(trifluoromethyl)thio-1-benzimidazolecarboxamide [P]”, the insect mortality rating [1] was 9 (91-100 percent mortality), the mortality rating ([2]; 10 ppm) was 4.0 and the mortality rating ([2]; 25 ppm) was 8.5. For the same compound, the mortality rating ([2]; 50 ppm) was 9 (91-100), the mortality rating ([2]; 100 ppm) was 9 (91-100) and the mortality rating ([2]; 250 ppm) was 9 (91-100). The mortality rating ([2]; 500 ppm) was 9 (91-100) and the mortality rating ([2]; 1000 ppm) was 9 (91-100).
For `CC(C)OC(=O)n1c(C(F)(F)F)nc2c([N+](=O)[O-])cc(C(F)(F)F)cc21` [I, isopropyl 2,6-bis(trifluoromethyl)-4-nitro-1-benzimidazolecarboxylate], the average mortality rating ([3]; 125 ppm) was 0 (0-10 percent), the average mortality rating ([3]; 250 ppm) was 0 (0-10 percent) and the average mortality rating ([3]; 500 ppm) was 3. The average mortality rating ([4]; 50 ppm) was 0 (0-10 percent), the average mortality rating ([4]; 100 ppm) was 1 and the average mortality rating ([4]; 250 ppm) was 2. The average mortality rating ([5]; 10 ppm) was 0 (0-10 percent), the average mortality rating ([5]; 25 ppm) was 4 and the average mortality rating ([5]; 50 ppm) was 4. The average mortality rating ([6]; 125 ppm) was 2, the average mortality rating ([6]; 250 ppm) was 4 and the average mortality rating ([6]; 500 ppm) was 2. For the same compound, the average mortality rating ([7]; 250 ppm) was 0 (0-10 percent), the average mortality rating ([7]; 500 ppm) was 0 (0-10 percent) and the average mortality rating ([7]; 1000 ppm) was 0 (0-10 percent). The average mortality rating ([8]; 500 ppm) was 1, the average mortality rating ([8]; 750 ppm) was 0 (0-10 percent) and the average mortality rating ([8]; 1000 ppm) was 1. For the same compound, the average mortality rating ([8]; 1500 ppm) was 0 (0-10 percent), the average mortality rating ([8]; 2500 ppm) was 1 and the average mortality rating ([8]; 5000 ppm) was 1. For the same compound, the average mortality rating ([9]; 0.3 μg/μl) was 0 (0-10 percent), the average mortality rating ([9]; 0.6 μg/μl) was 1 and the average mortality rating ([9]; 1.2 μg/μl) was 2. For the same compound, the average mortality rating ([10]; 10 ppm) was 9 (91-100 percent mortality), the average mortality rating ([10]; 25 ppm) was 9 (91-100 percent mortality) and the average mortality rating ([10]; 50 ppm) was 9 (91-100 percent mortality). The average mortality rating ([10]; 100 ppm) was 9 (91-100 percent mortality), the average mortality rating ([10]; 250 ppm) was 9 (91-100 percent mortality) and the average mortality rating ([11]; 500 ppm) was 1. For the same compound, the average mortality rating ([11]; 750 ppm) was 2, the average mortality rating ([11]; 1000 ppm) was 1 and the average mortality rating ([12]; 10 ppm) was 3. For the same compound, the average mortality rating ([12]; 25 ppm) was 4, the average mortality rating ([12]; 50 ppm) was 2 and the average mortality rating ([13]; 10 ppm) was 2. For the same compound, the average mortality rating ([13]; 25 ppm) was 6 and the average mortality rating ([13]; 50 ppm) was 7.
In the case of `O=[N+]([O-])c1cc(C(F)(F)F)cc2[nH]c(C(F)(F)Cl)nc12` [L, 2-chlorodifluoromethyl-4-nitro-6-trifluoromethylbenzimidazole], the average mortality rating ([12]; 10 ppm) is reported as 0 (0-10 percent), the average mortality rating ([12]; 25 ppm) is reported as 4 and the average mortality rating ([12]; 50 ppm) is reported as 5.
With “mixture of phenyl 2,6-bis(trifluoromethyl)-4-nitro-1-benzimidazolecarboxylate and phenyl 2,5-bis(trifluoromethyl)-1-benzimidazolecarboxylate” the insect mortality rating ([14]; .15625 μg/μl) was 9 (91-100 percent mortality), the mortality rating ([2]; 10 ppm) was 3 (31-40) and the mortality rating ([2]; 25 ppm) was 7 (71-80). The mortality rating ([2]; 50 ppm) was 7 (71-80), the mortality rating ([2]; 100 ppm) was 9 (91-100) and the mortality rating ([2]; 250 ppm) was 9 (91-100). For the same compound, the mortality rating ([2]; 500 ppm) was 9 (91-100), the mortality rating ([2]; 1000 ppm) was 9 (91-100) and the average mortality rating ([13]; 10 ppm) was 0 (0-10 percent). The average mortality rating ([13]; 25 ppm) was 1 and the average mortality rating ([13]; 50 ppm) was 9 (91-100 percent mortality).
For `CCCCCCOC(=O)n1c(C(F)(F)F)nc2c([N+](=O)[O-])cc(C(F)(F)F)cc21` [E, n-hexyl 2,6-bis(trifluoromethyl)-4-nitro-1-benzimidazolecarboxylate], the insect mortality rating ([14]; .3125 μg/μl) was 9 (91-100 percent mortality), the insect mortality rating [1] was 9 (91-100 percent mortality) and the mortality rating ([2]; 10 ppm) was 4.5. For the same compound, the mortality rating ([2]; 50 ppm) was 1.5, the average mortality rating ([10]; 10 ppm) was 6 and the average mortality rating ([10]; 25 ppm) was 9 (91-100 percent mortality). The average mortality rating ([10]; 50 ppm) was 9 (91-100 percent mortality), the average mortality rating ([10]; 100 ppm) was 9 (91-100 percent mortality) and the average mortality rating ([10]; 250 ppm) was 9 (91-100 percent mortality). The average mortality rating ([11]; 500 ppm) was 4, the average mortality rating ([11]; 750 ppm) was 2 and the average mortality rating ([11]; 1000 ppm) was 4. For the same compound, the average mortality rating ([15]; 0.010 ppm) was 0 (0-10%), the average mortality rating ([15]; 0.025 ppm) was 0 (0-10%) and the average mortality rating ([15]; 0.05 ppm) was 1 (15-20%). The average mortality rating ([15]; 0.1 ppm) was 8 (85-90%), the insect mortality rating [16] was 5 and the insect mortality rating [17] was 5. For the same compound, the insect mortality rating [18] was 9 (91-100 percent mortality), the insect mortality rating [19] was 9 (91-100 percent mortality) and the average mortality rating ([12]; 10 ppm) was 1. For the same compound, the average mortality rating ([12]; 25 ppm) was 2, the average mortality rating ([12]; 50 ppm) was 3 and the average mortality rating ([13]; 10 ppm) was 4. The average mortality rating ([13]; 25 ppm) was 7, the average mortality rating ([13]; 50 ppm) was 7 and the insect mortality rating [20] was 9 (91-100 percent mortality).
With “mixture of methyl 2,6-bis(trifluoromethyl)-4-nitro-1-benzimidazolecarboxylate and methyl 2,5-bis(trifluoromethyl)-7-nitro-1-benzimidazolecarboxylate” the insect mortality rating [1] was 9 (91-100 percent mortality), the mortality rating ([2]; 10 ppm) was 0 (0-10) and the mortality rating ([2]; 25 ppm) was 0 (0-10). The mortality rating ([2]; 50 ppm) was 9 (91-100), the mortality rating ([2]; 100 ppm) was 9 (91-100) and the mortality rating ([2]; 250 ppm) was 9 (91-100). For the same compound, the mortality rating ([2]; 500 ppm) was 9 (91-100), the mortality rating ([2]; 1000 ppm) was 9 (91-100) and the average mortality rating ([11]; 500 ppm) was 2. For the same compound, the average mortality rating ([11]; 750 ppm) was 6, the average mortality rating ([11]; 1000 ppm) was 7 and the average mortality rating ([15]; 0.025 ppm) was 0 (0-10%). The average mortality rating ([15]; 0.05 ppm) was 0 (0-10%), the average mortality rating ([15]; 0.1 ppm) was 4 (45-50%) and the average mortality rating ([12]; 25 ppm) was 3. For the same compound, the average mortality rating ([12]; 50 ppm) was 7 and 4, the average mortality rating ([13]; 10 ppm) was 5 and the average mortality rating ([13]; 25 ppm) was 4. It also gave an average mortality rating ([13]; 50 ppm) of 6.
For “mixture of benzyl 2,6-bis(trifluoromethyl)-4-nitro-1-benzimidazolecarboxylate and benzyl 2,5-bis(trifluoromethyl)-7-nitro-1-benzimidazolecarboxylate”, the insect mortality rating ([14]; .078125 μg/μl) was 9 (91-100 percent mortality), the insect mortality rating [1] was 9 (91-100 percent mortality) and the mortality rating ([2]; 10 ppm) was 0 (0-10). The mortality rating ([2]; 25 ppm) was 0 (0-10), the mortality rating ([2]; 50 ppm) was 4 (41-50) and the mortality rating ([2]; 100 ppm) was 5.5. For the same compound, the mortality rating ([2]; 250 ppm) was 9 (91-100), the mortality rating ([2]; 500 ppm) was 9 (91-100) and the mortality rating ([2]; 1000 ppm) was 9 (91-100). For the same compound, the average mortality rating ([11]; 500 ppm) was 4, the average mortality rating ([11]; 750 ppm) was 4 and the average mortality rating ([11]; 1000 ppm) was 6.
